Source: US20150174145A1, “Pharmaceutical compounds with the structure of ionic salts with antibiotic and anticancer action” (priority 2013, published 2015)

How the values were obtained:
E. coli ATCC 25922 [1] = experiment: Minimum inhibitory concentration, ampicillin sensitive strains; type: cell-based, Escherichia coli; settings: Escherichia coli, ATCC25922; E. coli ATCC 25922, Gram-negative, ampicillin sensitive; read-out: Minimum inhibitory concentrations
Method: (§1) Each one of the 24 combinations of the ionic liquids were tested with following 9 bacteria: • Escherichia coli ATCC25922 • Staphylococcus aureus ATCC25923 • Klebsiella pneumonia • Staphylococcus epidermidis • Enterococcus fecalis • E. coli Tem CTXM9 • E. coli CTXM2 • E. coli AmpCMox2 • Saccharomyces cerevisiae PYCC 4072
(§2) These bacteria were tested in Vitek2 systems from bioMérieux. Bacteria were grown on Trypticase soy agar for 24 hours at 37° C. prior to each test. The bacteria assays were made in Tryptic Soy Broth.

K. pneumoniae = experiment: as above; type: cell-based, Klebsiella pneumonia; settings: K. pneumoniae, Gram-negative, ampicillin sensitive
Method: as §1, §2

E. fecalis [2] = experiment: as above; type: cell-based, Enterococcus fecalis; settings: Enterococcus; E. fecalis, Gram-positive, ampicillin sensitive; read-out: Minimum inhibitory concentrations
Method: as §1, §2

S. epidermis [3] = experiment: as above; type: cell-based, Staphylococcus epidermidis; settings: Staphylococcus epidermidis; S. epidermis, Gram-positive, ampicillin sensitive; read-out: Minimum inhibitory concentrations
Method: as §1, §2

E. coli CTX M2 = experiment: Minimum inhibitory concentration, ampicillin resistant strains; type: cell-based; settings: Escherichia coli, CTXM2; E. coli CTX M2, ampicillin resistant; read-out: Minimum inhibitory concentrations
Method: as §1, §2

E. coli TEM CTX M9 [4] = experiment: as above; type: cell-based; settings: Escherichia coli; E. coli TEM CTX M9, ampicillin resistant; read-out: Minimum inhibitory concentrations
Method: as §1, §2

E. coli ATCC 25922 [5] = experiment: Growing rates in presence and absence of compound; type: cell-based, Escherichia coli; settings: E. coli ATCC 25922, conc. tested 0.5 mM
Method: as §2

S. aureus ATCC 25923 = experiment: Growing rates in presence and absence of compound; type: cell-based, Staphylococcus aureus; settings: S. aureus ATCC 25923, conc. tested 0.0005 mM
Method: as §2

K. pneumonia = experiment: Growing rates in presence and absence of compound; type: cell-based, Klebsiella pneumonia; settings: conc. tested 0.5 mM
Method: as §2

E. fecalis [6] = experiment: Growing rates in presence and absence of compound; type: cell-based, Enterococcus fecalis; settings: conc. tested 0.005 mM
Method: as §2

S. epidermis [7] = experiment: Growing rates in presence and absence of compound; type: cell-based, Staphylococcus epidermidis; settings: conc. tested 0.005 mM
Method: as §2

E. coli AmpC MOX2 = experiment: Growing rates in presence and absence of compound; type: cell-based; settings: E. coli AmpC Mox2, conc. tested 0.05 mM
Method: as §2

E. coli TEM CTX M9 [8] = experiment: Growing rates in presence and absence of compound; type: cell-based; settings: E. coli TEM CTX M9, conc. tested 0.05 mM
Method: as §2

SF (skin fibroblasts) = experiment: MTT cellular viability/proliferation, primary human cells; type: cell-based; settings: Homo sapiens, Skin fibroblast, MTT assay
Method: (§3) At about 70-80% confluence, cells were enzymatically detached with 0.05% trypsin and 0.5 mM EDTA and seeded at 10^4 cells cm^−2.
(§4) After an attachment period of 24 hours, the culture medium was renewed, and supplemented with different concentrations (0.005-500 mM) of the ampicillin derived ionic liquid. Cell cultures were maintained in a 5% CO2 humidified atmosphere at 37° C.
(§5) Cellular viability/proliferation was assessed by the MTT assay at days 1, 3 and 5 of the culture. This assay is based on the reduction of 3-(4,5-dimethylthiazol-2-yl)-2,5-diphenyltetrazolium bromide (MTT) to a purple formazan product by viable cells.
(§6) Shortly, cultured cells were incubated at 37° C. with 0.5 mg ml −1 of MTT for 4 hours. The culture medium was then removed; the stained product dissolved with dimethylsulfoxide, and absorbance determined at 550 nm in an ELISA plate rewader. Results were expressed as absorbance per cm2.
(§7) The values of the […] (IC50) and the median lethal dose (LD50) were obtained from nonlinear regression analysis of concentration effect curves using the GGraphPad Prism Software.
(§8) It is used to measure the efficacy of a compound in inhibiting any biochemical or biological function.

[9] = tested on: gingival fibroblasts (GF); experiment: as above; type: cell-based; settings: Homo sapiens, Fibroblast, MTT assay
Method: as §3, §4, §5, §6, §7, §8

[10] = tested on: HepG2 (hepatocellular liver carcinoma cell); experiment: MTT cellular viability/proliferation, cancer cell lines; type: cell-based, human; settings: Homo sapiens; HepG2, MTT assay
Method: as §3, §4, §5, §6, §7, §8

[11] = tested on: MG63 (osteosarcoma cell line); experiment: as above; type: cell-based, human; settings: Homo sapiens, MG-63; MG63, MTT assay
Method: as §3, §4, §5, §6, §7, §8

[12] = tested on: PC3 (prostate cancer cell line); experiment: as above; type: cell-based, human; settings: Homo sapiens; PC3, MTT assay
Method: as §3, §4, §5, §6, §7, §8

[13] = tested on: RKO (colon cancer cell line); experiment: as above; type: cell-based, human; settings: Homo sapiens, MTT assay
Method: as §3, §4, §5, §6, §7, §8

[14] = tested on: T47D (ductal breast epithelial tumour cell line); experiment: cells; type: cell-based; settings: Homo sapiens; T47D, MTT assay
Method: as §3, §4, §5, §6, §7, §8

CC1(C)S[C@@H]2[C@H](NC(=O)[C@H](N)c3ccccc3)C(=O)N2[C@H]1C(=O)O [[P6,6,6,14][Amp]]
MIC (E. coli ATCC 25922 [1]): 2500 µM
Minimum inhibitory concentrations (K. pneumoniae): 5000 µM
MIC (K. pneumoniae; Klebsiella pneumoniae, read-out: Minimum inhibitory concentrations): 5000 µM
MIC (E. fecalis [2]): 50 µM
MIC (S. epidermis [3]): 50 µM
MIC (E. coli CTX M2): 500 µM
MIC (E. coli TEM CTX M9 [4]): 500 µM
Growing rate with compound (E. coli ATCC 25922 [5]): 0.0007 ± 0.0001 min⁻¹
Decreasing rate (E. coli ATCC 25922 [5]; with compound vs no compound): 0.035
Growing rate with compound (S. aureus ATCC 25923): 0.0004 ± 0.0003 min⁻¹
Decreasing rate (S. aureus ATCC 25923; with compound vs no compound): 0.077
Growing rate with compound (K. pneumonia): 0.00045 ± 0.00007 min⁻¹
Decreasing rate (K. pneumonia; with compound vs no compound): 0.18
Growing rate with compound (E. fecalis [6]): 0.0009 ± 0.0004 min⁻¹
Decreasing rate (E. fecalis [6]; with compound vs no compound): 0.28
Growing rate with compound (S. epidermis [7]): 0.0006 ± 0.0000 min⁻¹
Decreasing rate (S. epidermis [7]; with compound vs no compound): 0.13
Growing rate with compound (E. coli AmpC MOX2): 0.00077 ± 0.00006 min⁻¹
Decreasing rate (E. coli AmpC MOX2; with compound vs no compound): 0.24
Growing rate with compound (E. coli TEM CTX M9 [8]): 0.00067 ± 0.00006 min⁻¹
Decreasing rate (E. coli TEM CTX M9 [8]; with compound vs no compound): 0.20
IC50 (SF (skin fibroblasts)): 249 nM
IC50 [9]: 173 nM
IC50 [10]: 322 nM
IC50 [11]: 312 nM
IC50 [12]: 354 nM
IC50 [13]: 180 nM
IC50 [14]: 264 nM
